Experimental data published in patent US12121510B2 (Cedars-Sinai Medical Center, priority 2016, dated 2024).
Where two headings read alike, the source gives them in different places.

Experiments:
[1] = test system: normal mouse kidney and liver; test: Immunohistochemical staining of normal kidney and liver; format: in vivo; details: mice harbored with human Burkitt's lymphoma
Text: These normal kidney and liver tissues were obtained from mice harbored with human Burkitt's lymphoma.

Daudi = test: Lymphoma cell growth IC50 (MTT); format: cell-based, human
Text: (§1) Exemplary Embodiments are generally performed as follows, unless otherwise noted. Simvastatin is purchased from Ark Pharm, Inc. (Arlington Heights, IL). Cisplatin (CIS) is purchased from MedKoo Biosciences, Inc. (Chapel Hill, NC). Dihydroartemisinin is purchased from TCI America (Portland, OR). All other chemicals and reagents are purchased from standard sources such as Sigma-Aldrich and/or VWR and are of highest quality available. Puromycin dihydrochloride was purchased from Alfa Aesar (Tewksbury, MA). Deionized water ([…]) used for making solutions is obtained from Milli-Q Direct Ultrapure Water System from Millipore (Billerica, MA, USA). All intermediates are characterized by 1H NMR and mass analysis and the purity of compounds are analyzed by HPLC. 1H NMR data are collected on Bruker 400 MHz spectrometers using standard parameters; chemical shifts are reported in ppm (δ) in reference to residual non-deuterated solvent. ESI mass spectroscopy analysis is performed using a Thermo Fisher LTQ Orbitrap Elite system. IC50 is the half maximal inhibitory concentration and determined is determined by crystal violet assay unless otherwise noted.
(§2) The crystal violet assay is performed as follows, unless otherwise noted. Cell lines are supplemented with RPMI 1640 medium, 10% fetal bovine serum, 1% PenStrep, and placed in a humidified atmosphere containing 5% CO2 at 37° C. 5,000 cells/well renal cancer cells and 10,000 cells/well lymphoma cells are seeded in 96 well plates in 100 microliter medium/per well for 24 h. […] Renal cancer cells are fixed with 3.7% paraformaldehyde for 15 minutes and are stained with Crystal violet solution (0.5% in 25% methanol) for 30 minutes. After rinsing with water cell layers are dried and decolorized with Sorenson citrate with shaking for 20 minutes. Light absorption of the extracted supernatant is read at 595 nm. Lymphoma cell growth was evaluated using MTT and cells are incubated for 4 hours. 100 microliters of isopropanol is added, and the extracted supernatant fraction is read at absorption maximum of 595 nm.
(§3) Standard cell culture conditions typically are RPMI 1640 medium, 10% fetal bovine serum, 1% PenStrep, and are performed in a humidified atmosphere containing 5% CO2 at 37° C. Generally, 5,000 cells/well-10,000 cells/well are seeded in 96 well plates in 100 microliter medium/per well for 24 h, or as described in Example 16, unless otherwise noted. Certain cells require specialized media, growth factors, antibiotics, or culture condition adjustments, as will be apparent to a person of ordinary skill in the art.
as §2, with “Cell” for “The crystal violet assay is performed as follows, unless otherwise noted. Cell”, “cultured as follows. […]” for “supplemented with RPMI 1640 medium, 10% fetal bovine serum, 1% PenStrep, and placed in a humidified atmosphere containing 5% CO2 at 37° C.”, “is” for “was”

Ramos = test: Lymphoma cell growth IC50 (MTT); format: cell-based, human
Text: as §1, §2, §3
as §2, with “Cell” for “The crystal violet assay is performed as follows, unless otherwise noted. Cell”, “cultured as follows. […]” for “supplemented with RPMI 1640 medium, 10% fetal bovine serum, 1% PenStrep, and placed in a humidified atmosphere containing 5% CO2 at 37° C.”, “is” for “was”

Namalwa = test: Lymphoma cell growth IC50 (MTT); format: cell-based, human
Text: as §1, §2, §3
as §2, with “Cell” for “The crystal violet assay is performed as follows, unless otherwise noted. Cell”, “cultured as follows. […]” for “supplemented with RPMI 1640 medium, 10% fetal bovine serum, 1% PenStrep, and placed in a humidified atmosphere containing 5% CO2 at 37° C.”, “is” for “was”

Raji = test: Lymphoma cell growth IC50 (MTT); format: cell-based, human
Text: as §1, §2, §3
as §2, with “Cell” for “The crystal violet assay is performed as follows, unless otherwise noted. Cell”, “cultured as follows. […]” for “supplemented with RPMI 1640 medium, 10% fetal bovine serum, 1% PenStrep, and placed in a humidified atmosphere containing 5% CO2 at 37° C.”, “is” for “was”

CA-46 = test: Lymphoma cell growth IC50 (MTT); format: cell-based, human
Text: as §1, §2, §3
as §2, with “Cell” for “The crystal violet assay is performed as follows, unless otherwise noted. Cell”, “cultured as follows. […]” for “supplemented with RPMI 1640 medium, 10% fetal bovine serum, 1% PenStrep, and placed in a humidified atmosphere containing 5% CO2 at 37° C.”, “is” for “was”

o-786 = test: Renal cancer cell growth IC50 (crystal violet); format: cell-based, human
Text: as §1, §2, §3
as §2, with “Cell” for “The crystal violet assay is performed as follows, unless otherwise noted. Cell”, “cultured as follows. […]” for “supplemented with RPMI 1640 medium, 10% fetal bovine serum, 1% PenStrep, and placed in a humidified atmosphere containing 5% CO2 at 37° C.”, “is” for “was”

Caki-1 = test: Renal cancer cell growth IC50 (crystal violet); format: cell-based, human; details: Caki-1
Text: as §1, §2, §3
as §2, with “Cell” for “The crystal violet assay is performed as follows, unless otherwise noted. Cell”, “cultured as follows. […]” for “supplemented with RPMI 1640 medium, 10% fetal bovine serum, 1% PenStrep, and placed in a humidified atmosphere containing 5% CO2 at 37° C.”, “is” for “was”

ACHN = test: Renal cancer cell growth IC50 (crystal violet); format: cell-based, human
Text: as §1, §2, §3
as §2, with “Cell” for “The crystal violet assay is performed as follows, unless otherwise noted. Cell”, “cultured as follows. […]” for “supplemented with RPMI 1640 medium, 10% fetal bovine serum, 1% PenStrep, and placed in a humidified atmosphere containing 5% CO2 at 37° C.”, “is” for “was”

SKRC = test: Renal cancer cell growth IC50 (crystal violet); format: cell-based, human
Text: as §1, §2, §3
as §2, with “Cell” for “The crystal violet assay is performed as follows, unless otherwise noted. Cell”, “cultured as follows. […]” for “supplemented with RPMI 1640 medium, 10% fetal bovine serum, 1% PenStrep, and placed in a humidified atmosphere containing 5% CO2 at 37° C.”, “is” for “was”

95D = test: Cell proliferation IC50, Crystal Violet assay; format: cell-based, human; details: 95D (Met); 72 h; single agent; mean ± SEM
Text: as §1
(§4) H446 is a SCLC cell line. […] Drugs tested and compared include CIS and DZ-CIS ester. Each drug is used as single agent.

YTMLC = test: Cell proliferation IC50, Crystal Violet assay; format: cell-based, human; details: 72 h, single agent, mean ± SEM
Text: as §1, §4

95C = test: Cell proliferation IC50, Crystal Violet assay; format: cell-based, human; details: 95C (Non-Met); 72 h; single agent; mean ± SEM
Text: as §1, §4

H446 = test: Cell proliferation IC50, Crystal Violet assay; format: cell-based, human; details: SCLC H446; 72 h; single agent; mean ± SEM
Text: as §1, §4

[2] = test system: renal cancer and B-cell lymphoma cell lines; test: Growth IC50 in renal cancer and B-cell lymphoma panel; format: cell-based, human; details: all cancer cell lines of Example 16; 72 h; read-out: IC50 across renal cancer and B-cell lymphoma cell lines
Protocol: as §2, with “Cell” for “The crystal violet assay is performed as follows, unless otherwise noted. Cell”, “cultured as follows. […]” for “supplemented with RPMI 1640 medium, 10% fetal bovine serum, 1% PenStrep, and placed in a humidified atmosphere containing 5% CO2 at 37° C.”, “is” for “was”

A549 = test: Cell proliferation IC50, Crystal Violet assay; format: cell-based, human; details: 72 h
[3] = 72 hours, read-out: Half maximal inhibitory concentration (IC50)

## N.N.[Cl][Pt][Cl] [CIS, cis-diamminedichloridoplatinum (II)]
[1]
  Apoptosis markers (cleaved caspas-3 and M30) / damage in normal kidney and liver: elevated
Daudi; [3]
  IC50: > 64 µM
Daudi; Example 15, read-out: IC50
  IC50: > 64 µM
Ramos; [3]
  IC50: > 64 µM
Ramos; Example 15, read-out: IC50
  IC50: > 64 µM
Namalwa; [3]
  IC50: > 64 µM
Namalwa; Example 15, read-out: IC50
  IC50: > 64 µM
Raji; [3]
  IC50: > 64 µM
Raji; Example 15, read-out: IC50
  IC50: > 64 µM
CA-46; CA-46, 72 hours, read-out: Half maximal inhibitory concentration (IC50)
  IC50: > 64 µM
CA-46; Example 15, CA46, read-out: IC50
  IC50: > 64 µM
o-786; Example 15, O-786, read-out: IC50
  IC50: > 64 µM
o-786; o-786, 72 hours, read-out: Half maximal inhibitory concentration (IC50)
  IC50: > 64 µM
Caki-1; [3]
  IC50: > 64 µM
Caki-1; Example 15, read-out: IC50
  IC50: > 64 µM
ACHN; [3]
  IC50: > 64 µM
ACHN; Example 15, read-out: IC50
  IC50: > 64 µM
SKRC; [3]
  IC50: > 64 µM
SKRC; Example 15, read-out: IC50
  IC50: > 64 µM
95D
  IC50: > 100 µM
YTMLC
  IC50: 16.2 ± 1 µM
95C
  IC50: 12.7 ± 1 µM
H446
  IC50: 107.3 ± 1 µM
[2]
  IC50: > 64 µM
A549; A549 parental, single agent, mean ± SEM, read-out: IC50
  IC50: 26 ± 1.2 µM
A549; read-out: IC50 of CIS, Mean, A549, CIS alone
  IC50: 26 µM
